# From ChEMBL document CHEMBL1141522, “Reduced cardiac side-effect potential by introduction of polar groups: discovery of NIBR-1282, an orally bioavailable CCR5 antagonist which is active in vivo” (Bioorg Med Chem Lett, 2008)
# Calls of active or inactive are those of the source. The rule behind the calls is not given here.
# Experiments:
# Heart [1] = assay: Toxicity in isolated rabbit heart model assessed as adverse side effect upto 0.5 uM; assay type: tissue-based, Oryctolagus cuniculus; settings: ex_vivo
# [2] = target: T1, C-C chemokine receptor type 5 (Macaca fascicularis, UniProt P61814); assay: Displacement of radiolabeled MIP-1alpha from cynomolgus monkey CCR5 expressed in CHO cells; assay type: cell-based
# [3] = target: T2, C-C chemokine receptor type 5 (Homo sapiens, UniProt P51681); assay: Displacement of [125I]RANTES from human CCR5 expressed in CHO cells; assay type: cell-based
# T2 sequence (P51681 whole entry): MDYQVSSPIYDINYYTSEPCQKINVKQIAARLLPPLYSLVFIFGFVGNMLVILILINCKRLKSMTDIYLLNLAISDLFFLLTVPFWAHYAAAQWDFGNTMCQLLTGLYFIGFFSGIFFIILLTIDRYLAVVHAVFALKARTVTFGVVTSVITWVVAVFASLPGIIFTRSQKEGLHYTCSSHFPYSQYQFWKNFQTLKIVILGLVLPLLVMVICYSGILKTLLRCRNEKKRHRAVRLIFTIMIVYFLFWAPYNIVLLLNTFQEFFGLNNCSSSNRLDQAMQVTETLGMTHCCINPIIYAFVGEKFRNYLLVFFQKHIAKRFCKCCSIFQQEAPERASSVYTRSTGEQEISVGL
# Heart [4] = assay: Toxicity in isolated rabbit heart model assessed as adverse side effect upto 10 uM; assay type: tissue-based, Oryctolagus cuniculus
# [5] = target: T2, C-C chemokine receptor type 5; assay: Antagonist activity at human CCR5 expressed in CHO cells assessed as MIP-1-alpha-induced Ca2+ mobilization; assay type: functional, cell-based
# [6] = target: T1, C-C chemokine receptor type 5; assay: Antagonist activity at cynomolgus monkey CCR5 expressed in CHO cells assessed as MIP-1-alpha-induced Ca2+ mobilization; assay type: functional, cell-based
# [7] = target: T2, C-C chemokine receptor type 5; assay: Antagonist activity at human CCR5 expressed in L1.2 cells assessed as MIP-1-alpha-induced Ca2+ mobilization; assay type: functional, cell-based
# Cytochrome P450 1A2 = Cytochrome P450 1A2 (Homo sapiens, UniProt P05177); assay: Inhibition of CYP1A2; assay type: ADME
# Sequence of Cytochrome P450 1A2 (P05177 whole entry): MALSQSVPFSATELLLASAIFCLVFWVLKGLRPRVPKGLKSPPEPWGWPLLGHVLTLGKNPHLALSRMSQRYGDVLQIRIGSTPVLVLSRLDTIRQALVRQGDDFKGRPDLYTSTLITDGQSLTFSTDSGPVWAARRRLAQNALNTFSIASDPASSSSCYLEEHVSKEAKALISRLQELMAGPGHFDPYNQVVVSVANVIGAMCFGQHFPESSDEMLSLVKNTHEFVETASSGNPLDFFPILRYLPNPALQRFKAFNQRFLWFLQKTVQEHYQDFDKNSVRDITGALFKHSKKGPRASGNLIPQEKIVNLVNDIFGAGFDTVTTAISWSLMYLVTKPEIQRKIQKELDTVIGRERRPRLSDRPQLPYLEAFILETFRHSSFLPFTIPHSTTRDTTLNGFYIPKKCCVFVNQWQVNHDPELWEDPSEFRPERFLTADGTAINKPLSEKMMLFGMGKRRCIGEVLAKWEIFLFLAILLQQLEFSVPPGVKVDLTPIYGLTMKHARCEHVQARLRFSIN
# Cytochrome P450 2C9 = Cytochrome P450 2C9 (Homo sapiens, UniProt P11712); assay: Inhibition of CYP2C9; assay type: ADME
# Cytochrome P450 2C19 = Cytochrome P450 2C19 (Homo sapiens, UniProt P33261); assay: Inhibition of CYP2C19; assay type: ADME
# Cytochrome P450 2D6 = Cytochrome P450 2D6 (Homo sapiens, UniProt P10635); assay: Inhibition of CYP2D6; assay type: ADME
# Cytochrome P450 3A4 = Cytochrome P450 3A4 (Homo sapiens, UniProt P08684); assay: Inhibition of CYP3A4; assay type: ADME
# Sequence of Cytochrome P450 3A4 (P08684 whole entry): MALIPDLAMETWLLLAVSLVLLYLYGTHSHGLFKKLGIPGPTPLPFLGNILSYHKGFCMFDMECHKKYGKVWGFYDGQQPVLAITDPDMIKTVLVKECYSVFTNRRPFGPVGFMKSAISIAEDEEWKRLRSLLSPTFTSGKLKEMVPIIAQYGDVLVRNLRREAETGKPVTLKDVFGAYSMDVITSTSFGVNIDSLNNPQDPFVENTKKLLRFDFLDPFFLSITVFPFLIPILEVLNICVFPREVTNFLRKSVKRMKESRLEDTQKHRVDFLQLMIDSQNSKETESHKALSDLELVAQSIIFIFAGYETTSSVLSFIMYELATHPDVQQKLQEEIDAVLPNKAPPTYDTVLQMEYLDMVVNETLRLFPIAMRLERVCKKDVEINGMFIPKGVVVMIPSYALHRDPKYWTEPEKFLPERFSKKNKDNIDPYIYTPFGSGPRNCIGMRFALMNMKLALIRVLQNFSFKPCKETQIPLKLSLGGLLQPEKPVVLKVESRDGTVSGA
# [8] = Dissociation constant, pKa of the compound; assay type: physicochemical
# [9] = Partition coefficient, log P of the compound; assay type: physicochemical; settings: octanol/water
# [10] = Lipophilicity, log D at pH 6.8; assay type: physicochemical; settings: buffer
# [11] = Intrinsic clearance in human liver microsomes; assay type: ADME, Microsome
# [12] = Intrinsic clearance in rat liver microsomes; assay type: ADME, Microsome
# [13] = Solubility in water; assay type: physicochemical
# [14] = Solubility at pH 7.4; assay type: physicochemical; settings: buffer
# [15] = Permeability from apical to basolateral side of human Caco-2 cell membranes; assay type: ADME, cell-based; settings: read-out: permeability (converted)
# [16] = Permeability from basolateral to apical side of human Caco-2 cell membranes; assay type: ADME, cell-based; settings: read-out: permeability (converted)
# [17] = Protein binding in human plasma; assay type: ADME, cell-free
# [18] = Protein binding in rat plasma; assay type: ADME, cell-free
# [19] = target: C-C chemokine receptor type 1 (Homo sapiens) (UniProt P32246); assay: Inhibition of CCR1 upto 1 uM
# Sequence of C-C chemokine receptor type 1 (Homo sapiens) (P32246 whole entry): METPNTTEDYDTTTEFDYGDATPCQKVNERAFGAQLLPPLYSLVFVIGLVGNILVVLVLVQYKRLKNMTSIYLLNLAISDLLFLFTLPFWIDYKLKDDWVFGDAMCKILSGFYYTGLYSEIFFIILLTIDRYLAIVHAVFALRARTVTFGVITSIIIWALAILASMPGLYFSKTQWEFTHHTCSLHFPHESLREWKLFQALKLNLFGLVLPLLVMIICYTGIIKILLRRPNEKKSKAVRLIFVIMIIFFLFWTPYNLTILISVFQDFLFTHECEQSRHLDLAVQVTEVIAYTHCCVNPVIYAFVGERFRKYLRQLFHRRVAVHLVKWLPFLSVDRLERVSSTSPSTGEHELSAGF
# [20] = target: C-C chemokine receptor type 2 (Homo sapiens) (UniProt P41597); assay: Inhibition of CCR2 upto 1 uM
# [21] = target: C-C chemokine receptor type 3 (Homo sapiens) (UniProt P51677); assay: Inhibition of CCR3 upto 1 uM
# Sequence of C-C chemokine receptor type 3 (Homo sapiens) (P51677 whole entry): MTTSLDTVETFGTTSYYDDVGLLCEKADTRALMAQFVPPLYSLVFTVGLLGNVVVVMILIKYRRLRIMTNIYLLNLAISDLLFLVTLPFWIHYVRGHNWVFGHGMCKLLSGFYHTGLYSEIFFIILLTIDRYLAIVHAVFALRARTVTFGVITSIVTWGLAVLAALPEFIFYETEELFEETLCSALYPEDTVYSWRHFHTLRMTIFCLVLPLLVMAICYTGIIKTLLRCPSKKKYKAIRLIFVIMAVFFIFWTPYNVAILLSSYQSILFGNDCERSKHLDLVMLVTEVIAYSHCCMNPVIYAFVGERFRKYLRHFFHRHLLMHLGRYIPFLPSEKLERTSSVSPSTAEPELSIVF
# [22] = target: C-C chemokine receptor type 4 (Homo sapiens) (UniProt P51679); assay: Inhibition of CCR4 upto 1 uM
# Sequence of C-C chemokine receptor type 4 (Homo sapiens) (P51679 whole entry): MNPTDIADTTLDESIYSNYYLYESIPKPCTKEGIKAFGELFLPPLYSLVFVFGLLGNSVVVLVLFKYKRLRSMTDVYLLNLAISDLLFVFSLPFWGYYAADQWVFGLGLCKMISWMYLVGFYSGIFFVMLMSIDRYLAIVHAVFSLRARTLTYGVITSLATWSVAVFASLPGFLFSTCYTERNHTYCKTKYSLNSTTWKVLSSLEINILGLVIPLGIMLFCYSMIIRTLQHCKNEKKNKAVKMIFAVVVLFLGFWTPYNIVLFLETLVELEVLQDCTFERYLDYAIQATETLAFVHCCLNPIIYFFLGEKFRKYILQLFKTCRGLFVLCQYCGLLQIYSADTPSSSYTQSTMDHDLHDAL
# [23] = target: C-C chemokine receptor type 6 (Homo sapiens) (UniProt P51684); assay: Inhibition of CCR6 upto 1 uM
# [24] = target: C-C chemokine receptor type 7 (Homo sapiens) (UniProt P32248); assay: Inhibition of CCR7 upto 1 uM
# Sequence of C-C chemokine receptor type 7 (Homo sapiens) (P32248 whole entry): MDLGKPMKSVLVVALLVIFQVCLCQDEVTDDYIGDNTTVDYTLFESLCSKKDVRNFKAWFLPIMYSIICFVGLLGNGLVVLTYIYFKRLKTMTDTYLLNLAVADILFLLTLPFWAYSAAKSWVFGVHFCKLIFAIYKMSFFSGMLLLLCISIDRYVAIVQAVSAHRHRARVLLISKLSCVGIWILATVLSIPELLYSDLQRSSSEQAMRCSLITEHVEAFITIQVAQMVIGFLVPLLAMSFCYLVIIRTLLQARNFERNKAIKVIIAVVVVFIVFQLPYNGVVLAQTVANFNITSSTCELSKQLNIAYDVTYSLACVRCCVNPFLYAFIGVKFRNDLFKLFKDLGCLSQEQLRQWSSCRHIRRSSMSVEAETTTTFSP
# [25] = target: C-X-C chemokine receptor type 1 (Homo sapiens) (UniProt P25024); assay: Inhibition of CXCR1 upto 1 uM
# [26] = target: C-X-C chemokine receptor type 2 (Homo sapiens) (UniProt P25025); assay: Inhibition of CXCR2 upto 1 uM
# [27] = target: C-X-C chemokine receptor type 3 (Homo sapiens) (UniProt P49682); assay: Inhibition of CXCR3 upto 1 uM
# [28] = target: C-X-C chemokine receptor type 4 (Homo sapiens) (UniProt P61073); assay: Inhibition of CXCR4 upto 1 uM
# Sequence of C-X-C chemokine receptor type 4 (Homo sapiens) (P61073 whole entry): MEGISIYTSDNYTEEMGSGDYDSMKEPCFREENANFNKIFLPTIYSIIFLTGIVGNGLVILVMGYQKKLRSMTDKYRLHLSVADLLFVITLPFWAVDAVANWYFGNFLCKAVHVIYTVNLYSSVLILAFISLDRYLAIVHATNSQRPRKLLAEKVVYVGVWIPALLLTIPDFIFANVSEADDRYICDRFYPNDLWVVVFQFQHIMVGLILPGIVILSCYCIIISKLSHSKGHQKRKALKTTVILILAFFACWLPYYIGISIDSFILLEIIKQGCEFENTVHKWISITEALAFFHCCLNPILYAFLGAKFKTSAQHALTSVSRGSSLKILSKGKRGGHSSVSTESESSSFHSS
# [29] = target: C-X-C chemokine receptor type 6 (Homo sapiens) (UniProt O00574); assay: Inhibition of CXCR6 upto 1 uM
# [30] = Inhibition of muscarinic acetylcholine receptor at 1 uM
# [31] = AUC in rat at 1 mg/kg, po; assay type: ADME, organism-based; set-up: dose 1 mg/kg, route oral; settings: plasma
# [32] = Cmax in rat at 1 mg/kg, po; assay type: ADME, organism-based; set-up: dose 1 mg/kg, route oral; settings: in vivo
# [33] = Tmax in po dosed rat; assay type: ADME, organism-based; settings: in vivo
# [34] = Half life in po dosed rat; assay type: ADME, organism-based; settings: in vivo
# [35] = Oral bioavailability in rat; assay type: ADME, organism-based; settings: in vivo
# [36] = AUC in cynomolgus monkey at 1 mg/kg, po; assay type: ADME, organism-based, Macaca fascicularis; set-up: dose 1 mg/kg, route oral; settings: plasma
# [37] = Cmax in cynomolgus monkey at 1 mg/kg, po; assay type: ADME, organism-based, Macaca fascicularis; set-up: dose 1 mg/kg, route oral; settings: in vivo
# [38] = Tmax in po dosed cynomolgus monkey; assay type: ADME, organism-based, Macaca fascicularis; settings: in vivo
# [39] = Half life in po dosed cynomolgus monkey; assay type: ADME, organism-based, Macaca fascicularis; settings: in vivo
# [40] = Oral bioavailability in cynomolgus monkey; assay type: ADME, organism-based, Macaca fascicularis; settings: in vivo
# [41] = AUC in dog at 1 mg/kg, po; assay type: ADME, organism-based, Canis lupus familiaris; set-up: dose 1 mg/kg, route oral; settings: plasma
# [42] = Cmax in dog at 1 mg/kg, po; assay type: ADME, organism-based, Canis lupus familiaris; set-up: dose 1 mg/kg, route oral; settings: in vivo
# [43] = Tmax in po dosed dog; assay type: ADME, organism-based, Canis lupus familiaris; settings: in vivo
# [44] = Half life in po dosed dog; assay type: ADME, organism-based, Canis lupus familiaris; settings: in vivo
# [45] = Oral bioavailability in dog; assay type: ADME, organism-based, Canis lupus familiaris; settings: in vivo
# [46] = Mean residence time in cynomolgus monkey; assay type: ADME, organism-based, Macaca fascicularis; settings: in vivo
# [47] = Mean residence time in dog; assay type: ADME, organism-based, Canis lupus familiaris; settings: in vivo
# Cynomolgus monkey [48] = assay: Prolongation of graft survival in cynomolgus monkey kidney transplantation model at 20 mg/kg, sc bid; assay type: functional, Macaca fascicularis; settings: route subcutaneous
# Cynomolgus monkey [49] = assay: Prolongation of graft survival in cynomolgus monkey kidney transplantation model at 20 mg/kg, sc bid in presence of cyclosporine A; assay type: functional, Macaca fascicularis; settings: route subcutaneous
# Cynomolgus monkey [50] = assay: Prolongation of graft survival in cynomolgus monkey kidney transplantation model at 40 mg/kg, po qd in presence of cyclosporine A; assay type: functional, Macaca fascicularis
# [51] = target: C-C chemokine receptor type 5 (Mus musculus) (UniProt P51682); assay: Binding affinity to mouse CCR5
# Heart [52] = assay: Toxicity in isolated rabbit heart model assessed as adverse side effect upto 1.0 uM; assay type: tissue-based, Oryctolagus cuniculus; settings: ex_vivo
# [53] = target: Voltage-gated inwardly rectifying potassium channel KCNH2 (Homo sapiens, UniProt Q12809); assay: Displacement of [3H]dofetilide from human ERG expressed in HEK293 cell membranes
# Sequence of Voltage-gated inwardly rectifying potassium channel KCNH2 (Q12809 whole entry): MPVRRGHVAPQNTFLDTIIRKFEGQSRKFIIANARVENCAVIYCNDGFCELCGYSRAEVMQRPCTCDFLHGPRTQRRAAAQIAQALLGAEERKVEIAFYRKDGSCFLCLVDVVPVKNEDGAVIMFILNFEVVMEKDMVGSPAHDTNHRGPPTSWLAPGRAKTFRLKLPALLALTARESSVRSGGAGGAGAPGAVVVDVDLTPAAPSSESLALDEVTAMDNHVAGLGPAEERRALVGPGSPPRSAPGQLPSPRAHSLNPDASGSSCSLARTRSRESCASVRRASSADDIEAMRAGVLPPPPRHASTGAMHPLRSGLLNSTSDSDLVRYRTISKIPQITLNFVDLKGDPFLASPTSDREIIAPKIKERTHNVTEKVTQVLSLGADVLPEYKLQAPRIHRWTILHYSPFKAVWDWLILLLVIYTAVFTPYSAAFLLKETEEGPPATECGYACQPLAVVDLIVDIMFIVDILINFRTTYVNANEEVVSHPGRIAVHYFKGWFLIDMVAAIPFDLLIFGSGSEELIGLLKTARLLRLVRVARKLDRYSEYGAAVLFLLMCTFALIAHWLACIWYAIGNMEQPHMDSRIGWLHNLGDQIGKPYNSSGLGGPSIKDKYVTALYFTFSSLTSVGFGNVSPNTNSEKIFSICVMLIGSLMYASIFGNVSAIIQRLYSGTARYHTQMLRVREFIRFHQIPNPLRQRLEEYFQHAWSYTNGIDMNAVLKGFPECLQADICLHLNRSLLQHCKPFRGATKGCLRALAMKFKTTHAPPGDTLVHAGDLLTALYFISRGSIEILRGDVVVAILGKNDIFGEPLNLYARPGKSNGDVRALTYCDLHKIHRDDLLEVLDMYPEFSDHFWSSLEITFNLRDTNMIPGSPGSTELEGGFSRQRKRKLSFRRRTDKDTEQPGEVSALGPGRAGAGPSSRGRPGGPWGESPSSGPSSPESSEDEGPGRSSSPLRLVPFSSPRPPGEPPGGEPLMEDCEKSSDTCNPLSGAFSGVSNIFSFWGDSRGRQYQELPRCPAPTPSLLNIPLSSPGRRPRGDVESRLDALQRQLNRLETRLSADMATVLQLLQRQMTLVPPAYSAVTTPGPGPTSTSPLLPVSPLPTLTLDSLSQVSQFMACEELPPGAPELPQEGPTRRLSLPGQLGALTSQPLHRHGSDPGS
# Heart [54] = assay: Toxicity in isolated rabbit heart model assessed as adverse side effect upto 1.5 uM; assay type: tissue-based, Oryctolagus cuniculus
# Heart [55] = assay: Toxicity in isolated rabbit heart model assessed as adverse side effect upto 5.0 uM; assay type: tissue-based, Oryctolagus cuniculus
structure (smiles),measurement,setting,value
Cc1cc[n+]([O-])c(C)c1C(=O)N1CCC(C)(N2CCC(N(c3ccccc3)c3ccccc3)CC2)CC1,Activity,Heart [1],Non-toxic
same,IC50,[2],3.4 nM
CC1(N2CCC(N(c3ccccc3)c3cccnc3)CC2)CCN(C(=O)c2c(Cl)cncc2Cl)CC1,Activity,Heart [1],Non-toxic
same,IC50,[3],0.8 nM
same,IC50,[2],3.2 nM
Cc1cc[n+]([O-])c(C)c1C(=O)N1CCC(C)(N2CCC(N(c3ccccc3)c3cccnc3)CC2)CC1,Activity,Heart [4],Non-toxic
same,IC50,[5],43.6 nM
same,IC50,[6],64 nM
same,IC50,[7],16.2 nM
same,IC50,Cytochrome P450 1A2,> 10000 nM
same,IC50,Cytochrome P450 2C9,> 10000 nM
same,IC50,Cytochrome P450 2C19,> 10000 nM
same,IC50,Cytochrome P450 2D6,> 10000 nM
same,IC50,Cytochrome P450 3A4,5300 nM
same,pKa,[8],5.5
same,logP,[9],2.2
same,logD,[10],0.8
same,microsomal CLint,[11],< 15 µL/min/mg
same,microsomal CLint,[12],< 15 µL/min/mg
same,solubility,[13],1000 µg/mL
same,solubility,[14],> 12500 µg/mL
same,Papp A→B,[15],0.667 ×10⁻⁶ cm/s
same,Papp B→A,[16],10.8 ×10⁻⁶ cm/s
same,fraction unbound,[17],0.62
same,fraction unbound,[18],0.48
same,Activity,[19],inactive
same,Activity,[20],inactive
same,Activity,[21],inactive
same,Activity,[22],inactive
same,Activity,[23],inactive
same,Activity,[24],inactive
same,Activity,[25],inactive
same,Activity,[26],inactive
same,Activity,[27],inactive
same,Activity,[28],inactive
same,Activity,[29],inactive
same,Activity,[30],inactive
same,AUC,[31],41 ng·h/mL
same,Cmax,[32],5.8 ng/mL
same,Tmax,[33],0.4 h
same,half-life,[34],8.1 h
same,bioavailability,[35],22%
same,AUC,[36],503 ng·h/mL
same,Cmax,[37],93 ng/mL
same,Tmax,[38],0.5 h
same,half-life,[39],6.3 h
same,bioavailability,[40],43%
same,AUC,[41],278 ng·h/mL
same,Cmax,[42],84 ng/mL
same,Tmax,[43],0.6 h
same,half-life,[44],7.9 h
same,bioavailability,[45],56%
same,MRT,[46],6 h
same,MRT,[47],8 h
same,Activity,Cynomolgus monkey [48],6 days
same,Activity,Cynomolgus monkey [49],>100 days
same,Activity,Cynomolgus monkey [50],39 days
same,Activity,[51],inactive
same,IC50,[3],5.1 nM
same,IC50,[2],8.1 nM
Cc1cc[n+]([O-])c(C)c1C(=O)N1CCC(C)(N2CCC(N(Cc3cccc(C#N)c3)c3ccccc3)CC2)CC1,Activity,Heart [52],Non-toxic
Cc1ccnc(C)c1C(=O)N1CCC(C)(N2CCC(N(c3ccccc3)c3ccccc3)CC2)CC1,Activity,Heart [1],Non-toxic
same,IC50,[53],570 nM
Cc1cccc(C)c1C(=O)N1CCC(C)(N2CCC(N(c3ccccc3)c3cccnc3)CC2)CC1,Activity,Heart [1],Non-toxic
same,IC50,[3],0.5 nM
same,IC50,[2],1.1 nM
CC1(N2CCC(N(c3ccccc3)c3cccnc3)CC2)CCN(C(=O)c2cccc3ccccc23)CC1,Activity,Heart [52],Non-toxic
same,IC50,[3],1.3 nM
same,IC50,[2],3.6 nM
CC1(N2CCC(N(c3ccccc3)c3cccnc3)CC2)CCN(C(=O)c2c(Cl)c[n+]([O-])cc2Cl)CC1,Activity,Heart [52],Non-toxic
same,IC50,[3],1 nM
same,IC50,[2],4.2 nM
Cc1cccc(C)c1C(=O)N1CCC(C)(N2CCC(N(Cc3ccccc3)c3ccccc3)CC2)CC1,IC50,[53],670 nM
same,Activity,Heart [54],Non-toxic
Cc1cc[n+]([O-])c(C)c1C(=O)N1CCC(C)(N2CCC(N(c3ccccc3)c3ccccn3)CC2)CC1,Activity,Heart [52],Non-toxic
same,IC50,[3],1.8 nM
same,IC50,[2],12 nM
Cc1cccc(C)c1C(=O)N1CCC(C)(N2CCC(N(c3ccccc3)c3ccccc3)CC2)CC1,Activity,Heart [52],Non-toxic
same,IC50,[53],150 nM
Cc1nc[n+]([O-])c(C)c1C(=O)N1CCC(C)(N2CCC(N(c3ccccc3)c3ccccc3)CC2)CC1,IC50,[53],1200 nM
same,Activity,Heart [54],Non-toxic
Cc1cccc(C)c1C(=O)N1CCC(C)(N2CCC(N(c3ccccc3)c3ccncc3)CC2)CC1,Activity,Heart [1],Non-toxic
same,IC50,[3],2 nM
same,IC50,[2],9.8 nM
Cc1cccnc1C(=O)N1CCC(C)(N2CCC(N(c3ccccc3)c3cccnc3)CC2)CC1,Activity,Heart [1],Non-toxic
same,IC50,[3],6.5 nM
same,IC50,[2],39 nM
Cc1ncnc(C)c1C(=O)N1CCC(C)(N2CCC(N(c3ccccc3)c3ccccc3)CC2)CC1,Activity,Heart [1],Non-toxic
Cc1ccnc(C)c1C(=O)N1CCC(C)(N2CCC(N(c3ccccc3)c3cccnc3)CC2)CC1,Activity,Heart [52],Non-toxic
same,IC50,[3],0.9 nM
same,IC50,[2],0.8 nM
Cc1nc(CN(c2ccccc2)C2CCN(C3(C)CCN(C(=O)c4c(C)cc[n+]([O-])c4C)CC3)CC2)cs1,Activity,Heart [55],Non-toxic
same,IC50,[53],12200 nM
same,IC50,[3],1.7 nM
same,IC50,[2],107 nM
Cc1cc[n+]([O-])c(C)c1C(=O)N1CCC(C)(N2CCC(N(Cc3ccccc3)c3ccccc3)CC2)CC1,Activity,Heart [1],Non-toxic
